From US20070128217A1 (priority 2003, published 2007) come the findings set out here.

Assay [1] deals with control sera (pooled serum of ten healthy LUMC hospital workers; commercial negative donor pooled serum from the Dutch bloodbank). It is filed as binding, human. Also noted: Binding of Control serum LUMC to linear peptides / Binding of Control serum Blood-bank to linear peptides / Binding of Control serum LUMC to looped peptides / Binding of Control Serum Blood-Bank to Looped peptides / Binding of Control serum LUMC to linear peptides of the protein M of SARS-CoV Urbani / Binding of Control serum Blood-bank to linear peptides of the protein M of SARS-CoV Urbani / Binding of Control serum LUMC to looped peptides of the protein M of SARS-CoV Urbani / Binding of Control Serum Blood-Bank to Looped peptides of the protein M of SARS-CoV Urbani: unit not given here.

For assay [2], the system named is rabbit serum obtained by immunizing a rabbit with the SARS-CoV strain Frankfurt 1. It is filed as binding. Further details: Binding of a rabbit serum to linear peptides / Binding of a rabbit serum to looped peptides / Rabbit serum linear peptides / Rabbit serum looped peptides / Binding of a rabbit serum to linear peptides of protein N of SARS-CoV Urbani (Rabbit serum linear peptides) / Binding of a rabbit serum to looped/cyclic peptides of protein N of SARS-CoV Urbani (Rabbit serum looped peptides): unit not given here.

Assay [3] deals with antibodies in sera from SARS patients (sera 1a, 1b, 2, 6, 37, 62, London, SARS-yellow, SARS-green). It is filed as binding, human. Also noted: Binding of serum 6 to linear peptides of protein X1 of SARS-CoV Urbani / Binding of serum 37 to linear peptides of protein X1 of SARS-CoV Urbani / Binding of serum 6 to looped/cyclic peptide (PEPSCAN-ELISA) / Binding of serum 37 to looped/cyclic peptide (PEPSCAN-ELISA) / Binding of serum 37 to looped/cyclic peptides of protein X1 of SARS-CoV Urbani / Binding of serum 6 to linear peptides of protein X2 / Binding of serum 37 to linear peptides of protein X2 / Binding of serum 37 to looped/cyclic peptides of protein X2 of SARS-CoV Urbani / Binding of serum 6 to linear peptides of protein M of SARS-CoV Urbani / Binding of serum 37 to linear peptides of protein M of SARS-CoV Urbani / Binding of serum 6 to looped/cyclic peptides of protein M of SARS-CoV Urbani / Binding of serum 37 to looped/cyclic peptides of protein M of SARS-CoV Urbani / Binding of serum 6 to linear peptides of protein X3 of SARS-CoV Urbani / Binding of serum 37 to linear peptides of protein X3 of SARS-CoV Urbani / Binding of serum 37 to looped/cyclic peptides of protein X3 of SARS-CoV Urbani / Binding of serum 6 to linear peptides of protein X4 of SARS-CoV Urbani / Binding of serum 37 to linear peptides of protein X4 of SARS-CoV Urbani / Binding of serum 37 to looped/cyclic peptides of protein X4 of SARS-CoV Urbani / Binding of serum 6 to linear peptides of protein X5 of SARS-CoV Urbani / Binding of serum 37 to linear peptides of protein X5 of SARS-CoV Urbani / Binding of serum 37 to looped/cyclic peptides of protein X5 of SARS-CoV Urbani / Binding of serum 6 to linear peptides of protein N of SARS-CoV Urbani / Binding of serum 37 to linear peptides of protein N of SARS-CoV Urbani / Binding of serum 6 to linear peptide (PEPSCAN-ELISA) / Binding of serum 1a to looped/cyclic peptides of protein N of SARS-CoV Urbani / Binding of serum 1b to looped/cyclic peptides of protein N of SARS-CoV Urbani / Binding of serum 2 to looped/cyclic peptides of protein N of SARS-CoV Urbani / Binding of serum 6 to looped/cyclic peptides of protein N of SARS-CoV Urbani / Binding of serum 37 to looped/cyclic peptides of protein N of SARS-CoV Urbani / Binding of serum 62 to looped/cyclic peptides of protein N of SARS-CoV Urbani / Binding of serum London to looped/cyclic peptides of protein N of SARS-CoV Urbani / Binding of serum SARS-green to looped/cyclic peptides of protein N of SARS-CoV Urbani: unit not given here.

On to KLLQTLVLKMLHSSS, for which, in assay [1], the “Binding of Control Serum Blood-Bank to Looped peptides” value stood at 0.7, the “Binding of Control serum Blood-bank to linear peptides” value is recorded as 0.7, the “Binding of Control serum LUMC to linear peptides” value was 0.3 and the “Binding of Control serum LUMC to looped peptides” value was 0.6. In addition, in assay [2], the “Binding of a rabbit serum to linear peptides” value is 0.2 and the “Binding of a rabbit serum to looped peptides” value turned out to be 0.4. In addition, in assay [3], the “Binding of serum 1a to linear peptides of protein X2” value was 0.6, the “Binding of serum 1a to looped/cyclic peptides of protein X2 of SARS-CoV Urbani” value was found to be 0.5, the “Binding of serum 1b to linear peptides of protein X2” value was found to be 0.6 and the “Binding of serum 1b to looped/cyclic peptides of protein X2 of SARS-CoV Urbani” value was 0.5. Besides, in assay [3], the “Binding of serum 2 to linear peptides of protein X2” value stood at 0.4, the “Binding of serum 2 to looped/cyclic peptides of protein X2 of SARS-CoV Urbani” value amounted to 0.3, the “Binding of serum 6 to linear peptides of protein X2” value amounted to 0.3 and the “Binding of serum 6 to looped/cyclic peptides of protein X2 of SARS-CoV Urbani” value was found to be 0.5. In addition, in assay [3], the “Binding of serum 37 to linear peptides of protein X2” value came out at 0.5, the “Binding of serum 37 to looped/cyclic peptides of protein X2 of SARS-CoV Urbani” value turned out to be 0.4, the “Binding of serum 62 to linear peptides of protein X2” value came to 0.6 and the “Binding of serum 62 to looped/cyclic peptides of protein X2 of SARS-CoV Urbani” value came to 0.6. In assay [3], the “Binding of serum London to linear peptides of protein X2” value was 0.4, the “Binding of serum London to looped/cyclic peptides of protein X2 of SARS-CoV Urbani” value amounted to 0.4, the “Binding of serum SARS-green to linear peptides of protein X2” value was determined as 0.5 and the “Binding of serum SARS-green to looped/cyclic peptides of protein X2 of SARS-CoV Urbani” value was 0.3. In assay [3], the “Binding of serum SARS-yellow to linear peptides of protein X2” value is recorded as 0.4 and the “Binding of serum SARS-yellow to looped/cyclic peptides of protein X2 of SARS-CoV Urbani” value is 0.4.

With KNPLLYDANYFVCWH, in assay [1], the “Binding of Control Serum Blood-Bank to Looped peptides” value was found to be 0.6, the “Binding of Control serum Blood-bank to linear peptides” value came out at 0.4, the “Binding of Control serum LUMC to linear peptides” value amounted to 0.4 and the “Binding of Control serum LUMC to looped peptides” value worked out at 0.7. Besides, in assay [2], the “Binding of a rabbit serum to linear peptides” value is 0.1 and the “Binding of a rabbit serum to looped peptides” value is listed as 0.7. For the same sequence, in assay [3], the “Binding of serum 1a to linear peptides of protein X1 of SARS-CoV Urbani” value is reported as 0.8, the “Binding of serum 1a to looped/cyclic peptide (PEPSCAN-ELISA)” value is reported as 0.6, the “Binding of serum 1b to linear peptides of protein X1 of SARS-CoV Urbani” value was determined as 0.5 and the “Binding of serum 1b to looped/cyclic peptide (PEPSCAN-ELISA)” value was 0.5. In addition, in assay [3], the “Binding of serum 2 to linear peptides of protein X1 of SARS-CoV Urbani” value is given as 0.5, the “Binding of serum 2 to looped/cyclic peptide (PEPSCAN-ELISA)” value came to 0.4, the “Binding of serum 6 to linear peptides of protein X1 of SARS-CoV Urbani” value was 0.4 and the “Binding of serum 6 to looped/cyclic peptide (PEPSCAN-ELISA)” value came to 0.4. In assay [3], the “Binding of serum 37 to linear peptides of protein X1 of SARS-CoV Urbani” value is on record as 0.6, the “Binding of serum 37 to looped/cyclic peptide (PEPSCAN-ELISA)” value is 0.6, the “Binding of serum 62 to linear peptides of protein X1 of SARS-CoV Urbani” value was 0.5 and the “Binding of serum 62 to looped/cyclic peptide (PEPSCAN-ELISA)” value is recorded as 0.6. Further, in assay [3], the “Binding of serum London to linear peptides of protein X1 of SARS-CoV Urbani” value worked out at 0.3, the “Binding of serum London to looped/cyclic peptide (PEPSCAN-ELISA)” value is listed as 0.2, the “Binding of serum SARS-green to linear peptides of protein X1 of SARS-CoV Urbani” value amounted to 0.4 and the “Binding of serum SARS-green to looped/cyclic peptide (PEPSCAN-ELISA)” value was 0.3. Besides, in assay [3], the “Binding of serum SARS-yellow to linear peptides of protein X1 of SARS-CoV Urbani” value is 0.3 and the “Binding of serum SARS-yellow to looped/cyclic peptide (PEPSCAN-ELISA)” value is on record as 0.4.

As for KTHRMCKYTQSTALQ, in assay [1], the “Binding of Control Serum Blood-Bank to Looped peptides” value came out at 0.5, the “Binding of Control serum Blood-bank to linear peptides” value is 0.6, the “Binding of Control serum LUMC to linear peptides” value is 0.5 and the “Binding of Control serum LUMC to looped peptides” value is 0.4. In assay [2], the “Binding of a rabbit serum to linear peptides” value was determined as 0.3 and the “Binding of a rabbit serum to looped peptides” value is given as 0.3. For the same sequence, in assay [3], the “Binding of serum 1a to linear peptides of protein X2” value worked out at 0.7, the “Binding of serum 1a to looped/cyclic peptides of protein X2 of SARS-CoV Urbani” value is 0.4, the “Binding of serum 1b to linear peptides of protein X2” value is reported as 0.5 and the “Binding of serum 1b to looped/cyclic peptides of protein X2 of SARS-CoV Urbani” value stood at 0.4. Further, in assay [3], the “Binding of serum 2 to linear peptides of protein X2” value was 0.6, the “Binding of serum 2 to looped/cyclic peptides of protein X2 of SARS-CoV Urbani” value turned out to be 0.2, the “Binding of serum 6 to linear peptides of protein X2” value worked out at 0.5 and the “Binding of serum 6 to looped/cyclic peptides of protein X2 of SARS-CoV Urbani” value is on record as 0.4. For the same sequence, in assay [3], the “Binding of serum 37 to linear peptides of protein X2” value worked out at 0.7, the “Binding of serum 37 to looped/cyclic peptides of protein X2 of SARS-CoV Urbani” value came out at 0.2, the “Binding of serum 62 to linear peptides of protein X2” value is recorded as 0.6 and the “Binding of serum 62 to looped/cyclic peptides of protein X2 of SARS-CoV Urbani” value came out at 0.4. In assay [3], the “Binding of serum London to linear peptides of protein X2” value turned out to be 0.5, the “Binding of serum London to looped/cyclic peptides of protein X2 of SARS-CoV Urbani” value was 0.2, the “Binding of serum SARS-green to linear peptides of protein X2” value is recorded as 0.5 and the “Binding of serum SARS-green to looped/cyclic peptides of protein X2 of SARS-CoV Urbani” value was 0.2. For the same sequence, in assay [3], the “Binding of serum SARS-yellow to linear peptides of protein X2” value stood at 0.8 and the “Binding of serum SARS-yellow to looped/cyclic peptides of protein X2 of SARS-CoV Urbani” value was 0.2.

As to KVLPFHRWHTMVQTC, in assay [1], the “Binding of Control Serum Blood-Bank to Looped peptides” value is 0.6, the “Binding of Control serum Blood-bank to linear peptides” value was 0.6, the “Binding of Control serum LUMC to linear peptides” value turned out to be 0.4 and the “Binding of Control serum LUMC to looped peptides” value is recorded as 0.5. Further, in assay [2], the “Rabbit serum linear peptides” value turned out to be 0.6 and the “Rabbit serum looped peptides” value stood at 0.5. Moreover, in assay [3], the “Binding of serum 1a to linear peptides of protein X5 of SARS-CoV Urbani” value is on record as 0.9, the “Binding of serum 1a to looped/cyclic peptides of protein X5 of SARS-CoV Urbani” value is given as 0.7, the “Binding of serum 1b to linear peptides of protein X5 of SARS-CoV Urbani” value is 0.6 and the “Binding of serum 1b to looped/cyclic peptides of protein X5 of SARS-CoV Urbani” value is 0.7. Also, in assay [3], the “Binding of serum 2 to linear peptides of protein X5 of SARS-CoV Urbani” value is on record as 0.7, the “Binding of serum 2 to looped/cyclic peptides of protein X5 of SARS-CoV Urbani” value worked out at 0.6, the “Binding of serum 6 to linear peptides of protein X5 of SARS-CoV Urbani” value is 0.5 and the “Binding of serum 6 to looped/cyclic peptides of protein X5 of SARS-CoV Urbani” value was determined as 0.7. In assay [3], the “Binding of serum 37 to linear peptides of protein X5 of SARS-CoV Urbani” value amounted to 0.7, the “Binding of serum 37 to looped/cyclic peptides of protein X5 of SARS-CoV Urbani” value is given as 0.6, the “Binding of serum 62 to linear peptides of protein X5 of SARS-CoV Urbani” value worked out at 0.7 and the “Binding of serum 62 to looped/cyclic peptides of protein X5 of SARS-CoV Urbani” value is listed as 0.6. Also, in assay [3], the “Binding of serum London to linear peptides of protein X5 of SARS-CoV Urbani” value came to 1.2, the “Binding of serum London to looped/cyclic peptides of protein X5 of SARS-CoV Urbani” value is 0.4, the “Binding of serum SARS-green to linear peptides of protein X5 of SARS-CoV Urbani” value was found to be 0.6 and the “Binding of serum SARS-green to looped/cyclic peptides of protein X5 of SARS-CoV Urbani” value is reported as 0.4. In assay [3], the “Binding of serum SARS-yellow to linear peptides of protein X5 of SARS-CoV Urbani” value came out at 0.2 and the “Binding of serum SARS-yellow to looped/cyclic peptides of protein X5 of SARS-CoV Urbani” value came to 0.3.
